Experiments:
Settings in all cases: 48 h
[1] = system: NOMO1; experiment: cell viability relative to DMSO control; higher = less cytotoxic
Procedure, shortened: (§1)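 Library compounds in DMSO were pin-dosed into 1536-well plates (5 μl) holding NOMO1 or SEM (500 cells/well) or P12-Ichikawa (1000 cells/well) leukemia cells, across an 11-point threefold series of 47 μM to 0.79 nM. Each cell line had been adapted for at least four passages in each medium. CellTiter-Glo One luminescence was read after 48 h at 37°C. Viability is the per-plate percentage relative to DMSO wells, with cell-free wells as background.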

[2] = system: SEM cells; experiment: as above
Procedure, shortened: as §1

[3] = system: P12-Ichikawa; experiment: as above
Procedure, shortened: as §1

[4] = system: NOMO1; experiment: AUC of viability dose-response curve (% viability x log10 dose units); higher = less sensitive
Procedure, shortened: (§2)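 Viability of medium-adapted leukemia cells was measured by CellTiter-Glo One luminescence after 48 h at 37°C with library compounds in DMSO. Doses were 11 threefold steps from 47 μM to 0.79 nM, in 1536-well plates at 500 or 1000 cells/well. Signals were normalised per plate to DMSO and cell-free wells and fitted with a four-parameter log-logistic model on log10 dose. Area under the curve was integrated by trapezoidal rule, with curves exceeding full viability scaled and failed quality-control curves removed.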

[5] = system: SEM cells; experiment: as above
Procedure, shortened: as §2

[6] = system: P12-Ichikawa; experiment: as above
Procedure, shortened: as §2

CC[C@H]1OC(=O)[C@H](C)[C@@H](O[C@H]2C[C@@](C)(OC)[C@@H](O)[C@H](C)O2)[C@H](C)[C@@H](O[C@@H]2O[C@H](C)C[C@H](N(C)C)[C@H]2O)[C@](C)(O)C[C@@H](C)/C(=N\OCOCCOC)[C@H](C)[C@@H](O)[C@]1(C)O
cell viability [%]
Settings	[1]	[2]	[3]
HPLM + 10% dialyzed FBS, 0.000781 µM	101	95.3	92.4
HPLM + 10% dialyzed FBS, 0.00234 µM	95.6	89	96.1
HPLM + 10% dialyzed FBS, 0.00702 µM	86	95.1	93.5
HPLM + 10% dialyzed FBS, 0.0211 µM	89.4	95.3	90.4
HPLM + 10% dialyzed FBS, 0.0632 µM	92.9	105	102
HPLM + 10% dialyzed FBS, 0.19 µM	89.6	83.1	87.8
HPLM + 10% dialyzed FBS, 0.569 µM	78.6	76.7	87.3
HPLM + 10% dialyzed FBS, 1.71 µM	75.3	93.6	82.9
HPLM + 10% dialyzed FBS, 5.12 µM	80.1	85.2	86.4
HPLM + 10% dialyzed FBS, 15.4 µM	68.5	80.5	76.9
HPLM + 10% dialyzed FBS, 46.1 µM	85.5	73.4	77.3
RPMI 5 mM glucose + 10% FBS, 0.000781 µM	85.2	107	81.3
RPMI 5 mM glucose + 10% FBS, 0.00234 µM	92	98.1	85
RPMI 5 mM glucose + 10% FBS, 0.00702 µM	95	109	84.9
RPMI 5 mM glucose + 10% FBS, 0.0211 µM	84.6	108	88.3
RPMI 5 mM glucose + 10% FBS, 0.0632 µM	89.5	111	94.3
RPMI 5 mM glucose + 10% FBS, 0.19 µM	90.7	87.4	76.8
RPMI 5 mM glucose + 10% FBS, 0.569 µM	87.3	94.6	72.4
RPMI 5 mM glucose + 10% FBS, 1.71 µM	88.9	97.5	73.1
RPMI 5 mM glucose + 10% FBS, 5.12 µM	90.9	96.9	82.3
RPMI 5 mM glucose + 10% FBS, 15.4 µM	91.1	87.9	82.4
RPMI 5 mM glucose + 10% FBS, 46.1 µM	82	95.6	79.6
RPMI 5 mM glucose + 10% dialyzed FBS, 0.000781 µM	85.9	103	89.2
RPMI 5 mM glucose + 10% dialyzed FBS, 0.00234 µM	79.3	104	90.1
RPMI 5 mM glucose + 10% dialyzed FBS, 0.00702 µM	83.3	107	90.2
RPMI 5 mM glucose + 10% dialyzed FBS, 0.0211 µM	74.1	116	91.6
RPMI 5 mM glucose + 10% dialyzed FBS, 0.0632 µM	76.6	108	112
RPMI 5 mM glucose + 10% dialyzed FBS, 0.19 µM	69.5	96.3	72
RPMI 5 mM glucose + 10% dialyzed FBS, 0.569 µM	72.1	92.9	61.3
RPMI 5 mM glucose + 10% dialyzed FBS, 1.71 µM	82.1	103	85.2
RPMI 5 mM glucose + 10% dialyzed FBS, 5.12 µM	80.1	100	81.9
RPMI 5 mM glucose + 10% dialyzed FBS, 15.4 µM	79.8	93.8	71.5
RPMI 5 mM glucose + 10% dialyzed FBS, 46.1 µM	79.8	71.7	94.3

AUC of viability dose-response curve
Settings	[4]	[5]	[6]
HPLM + 10% dialyzed FBS	409	423	423
RPMI 5 mM glucose + 10% FBS	424	444	390
RPMI 5 mM glucose + 10% dialyzed FBS	374	465	407

OC1=C(Cl)C=C(N\C2=C(\C(=O)NC2=O)C3=C(C=CC=C3)[N+]([O-])=O)C=C1
cell viability [%]
Settings	[1]	[2]	[3]
HPLM + 10% dialyzed FBS, 0.000781 µM	100	78.4	100
HPLM + 10% dialyzed FBS, 0.00234 µM	98.3	92.9	100
HPLM + 10% dialyzed FBS, 0.00702 µM	103	105	98.9
HPLM + 10% dialyzed FBS, 0.0211 µM	106	96.9	102
HPLM + 10% dialyzed FBS, 0.0632 µM	120	93	112
HPLM + 10% dialyzed FBS, 0.19 µM	106	102	97.7
HPLM + 10% dialyzed FBS, 0.569 µM	83.8	98	103
HPLM + 10% dialyzed FBS, 1.71 µM	70	115	99.5
HPLM + 10% dialyzed FBS, 5.12 µM	68.9	86.9	90.1
HPLM + 10% dialyzed FBS, 15.4 µM	56.8	56.3	87.4
HPLM + 10% dialyzed FBS, 46.1 µM	60.7	6	79.5
RPMI 5 mM glucose + 10% FBS, 0.000781 µM	94.3	103	98.6
RPMI 5 mM glucose + 10% FBS, 0.00234 µM	106	109	109
RPMI 5 mM glucose + 10% FBS, 0.00702 µM	116	106	105
RPMI 5 mM glucose + 10% FBS, 0.0211 µM	102	123	110
RPMI 5 mM glucose + 10% FBS, 0.0632 µM	99.5	109	99.4
RPMI 5 mM glucose + 10% FBS, 0.19 µM	95.9	120	98.9
RPMI 5 mM glucose + 10% FBS, 0.569 µM	94.5	104	111
RPMI 5 mM glucose + 10% FBS, 1.71 µM	95.4	104	105
RPMI 5 mM glucose + 10% FBS, 5.12 µM	86.5	93.6	104
RPMI 5 mM glucose + 10% FBS, 15.4 µM	69.6	60.8	83.9
RPMI 5 mM glucose + 10% FBS, 46.1 µM	10.1	25.2	58.1
RPMI 5 mM glucose + 10% dialyzed FBS, 0.000781 µM	90.2	94.7	100
RPMI 5 mM glucose + 10% dialyzed FBS, 0.00234 µM	98.7	99.1	107
RPMI 5 mM glucose + 10% dialyzed FBS, 0.00702 µM	102	98.2	112
RPMI 5 mM glucose + 10% dialyzed FBS, 0.0211 µM	112	99.4	115
RPMI 5 mM glucose + 10% dialyzed FBS, 0.0632 µM	119	113	110
RPMI 5 mM glucose + 10% dialyzed FBS, 0.19 µM	116	98.9	109
RPMI 5 mM glucose + 10% dialyzed FBS, 0.569 µM	96.4	116	113
RPMI 5 mM glucose + 10% dialyzed FBS, 1.71 µM	94.2	110	106
RPMI 5 mM glucose + 10% dialyzed FBS, 5.12 µM	78.6	88.2	109
RPMI 5 mM glucose + 10% dialyzed FBS, 15.4 µM	73.9	62.8	86.7
RPMI 5 mM glucose + 10% dialyzed FBS, 46.1 µM	12.1	27.2	69.5

AUC of viability dose-response curve
Settings	[4]	[5]	[6]
HPLM + 10% dialyzed FBS	400	419	457
RPMI 5 mM glucose + 10% FBS	431	426	456
RPMI 5 mM glucose + 10% dialyzed FBS	427	434	459
